The source of these data is patent US10716769B2 (GUANGZHOU JTREAT BIOSCI. LTD., priority 2015, dated 2020).

Molecules are shown by their SMILES.

The subject of one test is HPV 6/11 Virus. Kind of test: HPV detection via fluorescence quantitative PCR in genital warts tissue homogenate. Set-up: species or system human papillomavirus. Conditions: for HPV 6/11 virus detection, in words: 24 hours after addition into the tissue homogenate of genital warts; for HPV 6/11 Virus: genital warts tissue homogenate, 37° C., 24 hours, FQ-PCR. The text has this:
(§1) The aforesaid compounds and/or compositions containing the same are effective in killing and inhibiting HPV type 6/11 and type 16/18, which can be used for the preparation of drugs for preventing and treating viral infection of HPV, preventing and treating genital warts, flat warts, common warts, vaginitis, cervicitis and cervical erosion, cervical cancer, esophageal cancer and other cancers caused by HPV. The present invention observes the effect of active ingredients and products by the detection of the change in the amount of the HPV virus through the real-time quantitative PCR. Such method has been applied in several publications (Youling C A I, et al., Chinese STD/AIDS, 2002, 8: 2,108; Yuansheng W U, Ruijiang F A N, et al., Practical Application of Integrated Chinese and Western Medicine in Clinics, 2003, 3: 2,1).
(§2) The microemulsion obtained in example 1 is used as a test sample and saline for blank control.
(§3) The standard clinical genital warts specimens from a variety of patients after being cut off are washed with saline for removing bloods, and are cut into pieces under aseptic conditions, added with saline in 3 times of their volumes to be uniformly mixed, grinded into homogenate and placed at −40° C. for use.
(§4) Each test sample drug microemulsion and the saline of 50 μl for each are respectively added with 50 μl the genital warts tissue homogenate, and incubated at 37° C. for 24 hours; tests are performed according to the operation procedure provided by the HPV6, 11 and 16, 18 type FQ-PCR diagnostic kits provided by Da'an Gene Diagnostic Center. 0.2 ml of DNA extracted by the conventional alkaline lysis method is put into the thin-walled reaction tube, and simultaneously added with primers, F-PROBE, DNTP, DNA polymerase, buffers and the like in a certain concentration; ABI PRISM™ 7700 fluorescence quantitative PCR amplifier is used to repeat 40 circulations each with 45 s at 93° C. and 120 s at 55° C. after predegeneration at 93° C. for 2 mins; the quantitative results are automatically analyzed by the computer software to calculate the quantitative results of the initial copy number. The data are shown in Table 2 (completed by Da'an Gene Clinical Test Center).

Another test deals with HPV16/18. The test is described as above. More on the design: species or system human papillomavirus. Particulars: for HPV16/18 virus detection, in words: 24 hours after addition into the tissue homogenate of genital warts; for HPV16/18: genital warts tissue homogenate, 37° C., 24 hours, FQ-PCR.
Excerpt: as §1, §2, §3, §4

Test [1] has as its system human cervical cancer cell line (HeLa). Kind of test: MTT in vitro tumor cell inhibition. Conditions: 3 days; for Inhibitory rate %: 10^−4 g/ml. Format: cell-based. The text has this:
(§5) An effective amount of the above compounds and/or the compositions containing the same used as an active ingredient have an effect on inhibiting the tumor cells. The present invention detects the inhibitory effect of the hydroxy-substituted benzophenone compounds on the proliferation of the in vitro cultured human tumor cells by the methylthiazolyl tetrazolium method.
(§6) The method is used to detect cell viability. […] Particles can be dissolved by dimethyl sulfoxide (DMSO) isopropyl alcohol or 10% acidified SDS (sodium dodecyl sulfate), and a microplate reader is used to measure the OD value at A570 wavelength, which indirectly reflects the number of live cells. The method is used for detection of the cytokines bioactivity, as well as anti-tumor drugs and tumor radiosensitivity and cytotoxicity test, and has the characteristics of being simple, fast, economical, sensitive and accurate and having good reproducibility and no need to use radionuclides. This method has been widely used in screening preclinical anticancer drugs and detecting the drug sensitivity of fresh tumor cells. The method is as below:
(§7) (1) The tumor cell suspension prepared by 0.25% of trypsin digestion and adjusted to a cell concentration of 10^5/ml with RPMI1640 containing 10% fetal calf serum is added to a 96-well plate with 100 μl for each well, cultured 24 hours, and then different dosages of drugs are added with 100 μl/well, for which, the negative control groups, positive control groups and withering wells are set, and 4 parallel wells are set for each group.
(§8) (2) They are continually cultured in incubator containing 5% of CO2 at 37° C. for 24 to 48 hours. MTT solution (5 g/L) is added to each well before the termination of the experiment. The OD value at A570 nm is detected by microplate reader. The OD value at A570 of the negative group without the addition of drugs is taken as a control. The cell survival rate and cell inhibition rate of drugs are calculated according to the following formula: Cell survival rate=(OD value of test group/OD value of control group)×100% Cell inhibition rate (%)=(OD value of the control group−OD value of the test group/(OD value of the control group−OD value of the blank group)
(§9) 1. Tumor cell lines: human glioma cell line (U251), human colon cancer cell line (LOVO), human hepatoma cell line (HepG2), human lung cancer cell line (PC84045), human endometrial carcinoma cell line (JEC), human renal carcinoma (GRC), human gastric cancer cell line (MCG804), human cervical cancer cell line (HeLa), human hepatocellular carcinoma cell line (BEL-7402) and human umbilical vein endothelial cell line (ECV304) purchased from Animal Experimental Center of Zhongshan Medical College, and preserved by the present laboratory.
(§10) The tumor cell lines are cultured in RPMI-1640 medium containing 15% of the newborn bovine serum in a conventional manner, placed in the humidification incubator containing 5% of CO2 for being cultured at 37° C., and are observed for growth by an inverted microscope. A subculture is conducted every about 3-5 days, the cells in logarithmic growth phase are adopted to be digested with 0.25% of trypsin, and the serum-free RPMI-1640 medium is used for culturing the cell suspension; the blood counting plate makes counting, the trypan blue exclusion tests the cell activity, and the cell viability>95% is used for formal tests.
(§11) Liquid preparation: the compounds are labeled with the codes respectively, DMSO is used to dissolve each compound, the bacterial filter is used to remove bacteria, and each compound is prepared into 10^−4 g/ml, 10^−5 g/ml, 10^−6 g/ml and preserved at 4° C. for use. […]

In test [2] the test system is human colon cancer cell line (LOVO). Nature of the test: MTT in vitro tumor cell inhibition. Format: cell-based. Conditions: 3 days.
Excerpt: as §5, §6, §7, §8, §9, §10, §11

For test [3], the system named is human endometrial carcinoma cell line (JEC). Nature of the test: MTT in vitro tumor cell inhibition. Particulars: 3 days. Format: cell-based.
Excerpt: as §5, §6, §7, §8, §9, §10, §11

For test [4], the system named is human gastric cancer cell line (MCG804). Kind of test: MTT in vitro tumor cell inhibition. Format: cell-based. Conditions: 3 days.
Excerpt: as §5, §6, §7, §8, §9, §10, §11

Test [5] relates to human glioma cell line (U251). Nature of the test: MTT in vitro tumor cell inhibition. Format: cell-based. Particulars: 3 days; for Inhibitory rate, sensitivity class: U251, 10^−6 g/ml.
Excerpt: as §5, §6, §7, §8, §9, §10, §11

The subject of test [6] is human hepatoma cell line (HepG2). Kind of test: MTT in vitro tumor cell inhibition. Format: cell-based. Conditions: 3 days.
Excerpt: as §5, §6, §7, §8, §9, §10, §11

In test [7] the test system is human lung cancer cell line (PC84045). Nature of the test: MTT in vitro tumor cell inhibition. Conditions: 3 days. It counts as cell-based.
Excerpt: as §5, §6, §7, §8, §9, §10, §11

`O=C(c1cc(O)c(O)cc1O)c1ccc(O)c(O)c1O`: the “HPV 6/11 virus detection, in words” value in the test with HPV 6/11 Virus is reported as “can no longer be detected”. Moreover, the “HPV 6/11 Virus” value in the test with HPV 6/11 Virus is 0 copy/ml. In the test with HPV16/18, the “HPV16/18 virus detection, in words” value is recorded as “can no longer be detected”. For the same molecule, in the test with HPV16/18, the HPV16/18 was determined as 0 copy/ml. The Inhibitory rate % in [1] turned out to be 60.92%; in test [2] (10^−4 g/ml) it was 51.19%; in test [3] (10^−4 g/ml), 83.16%; in test [3] (10^−5 g/ml) it was 42.57%; in test [4] (MCG804, 10^−4 g/ml), 83.48%; in test [4] (MCG804, 10^−5 g/ml), 72.89%. Also, the Inhibitory rate % came to 68.82% in test [5] (U251, 10^−4 g/ml); 31.35% in [5] (U251, 10^−5 g/ml); 85.12% in [6] (HepG2, 10^−4 g/ml); 51.57% in test [6] (HepG2, 10^−5 g/ml); 82.49% in [7] (PC84045, 10^−4 g/ml); 70.97% in test [7] (PC84045, 10^−5 g/ml). The Inhibitory rate % in test [7] (PC84045, 10^−6 g/ml) is given as 49.70%. In addition, the “Inhibitory rate, sensitivity class” value is “insensitive (<30% means insensitive)” in [1] (10^−5 g/ml); “insensitive (<30% means insensitive)” in test [1] (10^−6 g/ml); “insensitive (<30% means insensitive)” in test [2] (10^−5 g/ml); “insensitive (<30% means insensitive)” in test [2] (10^−6 g/ml); “insensitive (<30% means insensitive)” in test [3] (10^−6 g/ml); “insensitive (<30% means insensitive)” in test [4] (MCG804, 10^−6 g/ml). Besides, the “Inhibitory rate, sensitivity class” value is “insensitive (<30% means insensitive)” in test [5] and “insensitive (<30% means insensitive)” in test [6] (HepG2, 10^−6 g/ml).

Turning to `O=C(c1ccc(O)c(O)c1O)c1ccc(O)c(O)c1O` [2,3,4,2′,3′,4′-hexahydroxybenzophenone], in the test on HPV 6/11 Virus, the “HPV 6/11 virus detection, in words” value is recorded as “can no longer be detected”. The “HPV 6/11 Virus” value in the test with HPV 6/11 Virus stood at 0 copy/ml. For the same molecule, the “HPV16/18 virus detection, in words” value in the test with HPV16/18 is listed as “can no longer be detected”. Also, the HPV16/18 in the test with HPV16/18 was found to be 0 copy/ml. The Inhibitory rate % in test [1] turned out to be 61.12%; in test [3] (10^−4 g/ml), 85.63%; in [3] (10^−5 g/ml), 42.79%; in test [4] (MCG804, 10^−4 g/ml), 80.93%; in test [4] (MCG804, 10^−5 g/ml), 30.12%; in test [5] (U251, 10^−4 g/ml), 83.26%. The Inhibitory rate % in test [5] (U251, 10^−5 g/ml) turned out to be 30.87%; in test [6] (HepG2, 10^−4 g/ml) it was 86.15%; in [6] (HepG2, 10^−5 g/ml) it was 75.54%; in [7] (PC84045, 10^−4 g/ml) it was 84.60%; in [7] (PC84045, 10^−5 g/ml), 72.34%. Moreover, the “Inhibitory rate, sensitivity class” value in test [1] (10^−5 g/ml), in test [1] (10^−6 g/ml), in test [2] (10^−4 g/ml), in [2] (10^−5 g/ml), in [2] (10^−6 g/ml) and in [3] (10^−6 g/ml) was “insensitive (<30% means insensitive)” each time. Besides, the “Inhibitory rate, sensitivity class” value in test [4] (MCG804, 10^−6 g/ml) is reported as “insensitive (<30% means insensitive)”; in test [5], “insensitive (<30% means insensitive)”; in test [6] (HepG2, 10^−6 g/ml), “insensitive (<30% means insensitive)”; in test [7] (PC84045, 10^−6 g/ml), “insensitive (<30% means insensitive)”.

As for `O=C(c1ccc(O)cc1O)c1ccc(O)cc1O` [2,4,2′,4′-tetrahydroxybenzophenone], the “HPV 6/11 virus detection, in words” value with HPV 6/11 Virus was “can no longer be detected”. The “HPV 6/11 Virus” value in the test on HPV 6/11 Virus is on record as 0 copy/ml. Moreover, the “HPV16/18 virus detection, in words” value in the test on HPV16/18 is on record as “can no longer be detected”. In the test with HPV16/18, this molecule gave an HPV16/18 of 0 copy/ml. The Inhibitory rate % in [1] was found to be 31.05%; in test [2] (10^−4 g/ml) it was 53.29%; in test [3] (10^−4 g/ml) it was 46.70%; in test [4] (MCG804, 10^−4 g/ml), 38.95%; in test [6] (HepG2, 10^−4 g/ml) it was 74.85%; in test [7] (PC84045, 10^−4 g/ml) it was 53.40%. Further, the “Inhibitory rate, sensitivity class” value in test [1] (10^−5 g/ml), in test [1] (10^−6 g/ml), in test [2] (10^−5 g/ml), in test [2] (10^−6 g/ml), in test [3] (10^−5 g/ml) and in test [3] (10^−6 g/ml) was “insensitive (<30% means insensitive)” each time. In addition, the “Inhibitory rate, sensitivity class” value in test [4] (MCG804, 10^−5 g/ml) was “insensitive (<30% means insensitive)”; in test [4] (MCG804, 10^−6 g/ml) it was “insensitive (<30% means insensitive)”; in [6] (HepG2, 10^−5 g/ml), “insensitive (<30% means insensitive)”; in [6] (HepG2, 10^−6 g/ml), “insensitive (<30% means insensitive)”; in test [7] (PC84045, 10^−5 g/ml) it was “insensitive (<30% means insensitive)”; in [7] (PC84045, 10^−6 g/ml) it was “insensitive (<30% means insensitive)”.
